The target of series [1] is HPK1 (Homo sapiens (Human), UniProt Q92918). The experiment in a line: Assay for in vitro inhibitory activity against HPK1 kinase. Type of series: biochemical. As to conditions: ATP 0.1 mM; HTRF, STK Substrate 1-biotin; read-out: In vitro inhibitory activity against enzyme HPK1 IC50. As for the experimental part:
The kinase buffer (Enzymatic buffer 5×) was diluted to 1×, and 10 mM MgCl2, 1 mM DTT, and 0.005% Tween 20 were added. The 100 ng/μL HPK1 (Life technology) stock solution was diluted with the kinase buffer to obtain a 1.67×, 1.67 ng/μL working solution (final concentration: 1 ng/μL), and the working solution was seeded in a 384-well plate at 6 μL/well. Different compounds dissolved in DMSO were added to the wells using a nanoliter pipettor to final concentrations of 1000 nM to 0.244 nM (4-fold serial dilution, 7 concentrations in total), and blank control wells (without enzyme) and negative control wells (with enzyme, plus vehicle DMSO) were set; the wells were set in duplicate. After the enzyme and compounds were incubated at room temperature for 1 h, a 5×, 0.5 mM ATP dilution (final concentration: 0.1 mM) in the kinase buffer was mixed with a 5×, 2.5 μM substrate (Cisbio, STK Substrate 1-biotin; final concentration: 500 nM) in equal volume, and the mixture was added to each well at 4 μL/well. The plate was sealed with a film and then incubated at room temperature for 2 h. An assay antibody solution was prepared by mixing the antibody STK Antibody-cryptate (Cisbio, 5 μL/test) and a 4×, 500 nM Streptavidin-XL665 (Cisbio; final concentration: 125 nM) in equal volume and was added to each well at 10 μL/well, and the plate was incubated at room temperature for 1 h. The signal values ([…]) were measured using a PE Envision multi-functional microplate reader, and IC50 was calculated by four-parameter fitting.
(In general: Time-resolved FRET reads energy transfer from a long-lived donor to a nearby acceptor.)

The test system of series [2] is Jurkat cell p-SLP76 phosphorylation. The experiment in a line: Assay for Jurkat cell p-SLP76 phosphorylation inhibitory activity. In kind it is cell-based. Conditions: Homo sapiens, 0.5 h; Jurkat cells, CD3CD28 stimulation 30 min; read-out: Jurkat cell p-SLP76 phosphorylation inhibition IC50. As for the experimental part: The Jurkat cells in a good growth state were added to a centrifuge tube, centrifuged, and resuspended. The cell density was adjusted to 6.25×10^6 cells/mL, and the cells were seeded in a 384-well small-volume white plate at 8 μL/well. Compounds were added in duplicate using a nanoliter pipettor to final concentrations of 2500 nM to 10.29 nM and a control was set. After 1 h of cell culture, the stimulator CD3CD28 (4 μL; manufacturer: Stemcell) was added and the cells were incubated at 37° C. for 30 min. 3 μL of lysis buffer (manufacturer: BioAuxilium) was added to each well, and the plate was shaken at room temperature for 30 min. After the lysate was well mixed, 5 μL of pre-mixed antibody (manufacturer: BioAuxilium) in assay buffer was added and the plate was incubated overnight at room temperature. The signal values were measured on a PerkinElmer Envision multi-functional microplate reader (excitation: 320 nm, emission: 615 nm/665 nm), and IC50 was calculated by four-parameter fitting.

Series [3] can be described thus: In vitro liver microsomal stability (MLM). Type of series: in vitro ADME, mouse. As for the experimental part:
(§1) Preparation of liver microsome incubated samples: PBS buffer (pH 7.4), liver microsome solutions (0.5 mg/mL; HLM and MLM, respectively), the test compounds and NADPH+MgCl2 solution were mixed and incubated at 37° C. at 300 rpm for 1 h. Preparation of zero-hour samples: PBS buffer (pH 7.4), liver microsome solutions (0.5 mg/mL; HLM and MLM, respectively) and the test compounds were mixed. An acetonitrile solution containing internal standard was added to the samples, and supernatants were prepared by protein precipitation, diluted and then analyzed by LC/MS/MS.
For orientation: Liver microsomes are vesicles of endoplasmic reticulum, rich in cytochrome P450 enzymes.

Series [4] is described as follows: In vitro liver microsomal stability (HLM). In kind it is in vitro ADME, human. On the procedure: as §1
[5] abbreviates: MLM 0.5 mg/mL, 37° C., NADPH, 60 min.
[6] abbreviates: HLM 0.5 mg/mL, 37° C., NADPH, 60 min.

Chain of HPK1 (Q92918 whole entry): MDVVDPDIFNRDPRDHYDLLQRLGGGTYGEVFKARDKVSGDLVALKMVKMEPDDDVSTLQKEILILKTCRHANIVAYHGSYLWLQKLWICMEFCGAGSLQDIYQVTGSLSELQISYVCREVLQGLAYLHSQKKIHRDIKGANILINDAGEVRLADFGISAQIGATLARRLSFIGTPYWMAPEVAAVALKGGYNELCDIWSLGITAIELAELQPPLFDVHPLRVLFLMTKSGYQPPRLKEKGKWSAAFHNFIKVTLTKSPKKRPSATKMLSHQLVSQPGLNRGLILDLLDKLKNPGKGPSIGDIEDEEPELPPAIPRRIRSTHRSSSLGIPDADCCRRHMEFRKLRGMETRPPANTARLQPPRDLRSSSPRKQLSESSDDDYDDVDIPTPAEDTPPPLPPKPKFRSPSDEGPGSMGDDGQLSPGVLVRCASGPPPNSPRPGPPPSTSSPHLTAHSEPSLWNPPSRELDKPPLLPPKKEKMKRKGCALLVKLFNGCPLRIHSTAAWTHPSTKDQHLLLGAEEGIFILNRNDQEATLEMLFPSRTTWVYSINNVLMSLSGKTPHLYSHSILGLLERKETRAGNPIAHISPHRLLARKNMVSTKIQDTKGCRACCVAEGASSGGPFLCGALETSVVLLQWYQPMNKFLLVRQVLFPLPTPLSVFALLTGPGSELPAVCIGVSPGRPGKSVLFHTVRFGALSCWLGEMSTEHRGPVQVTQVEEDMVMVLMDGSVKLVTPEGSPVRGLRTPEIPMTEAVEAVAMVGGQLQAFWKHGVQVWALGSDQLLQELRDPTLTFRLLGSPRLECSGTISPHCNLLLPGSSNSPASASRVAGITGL

`[2H]c1cc2c(N)c(-c3nc4c([2H])c(N5CCN(C)CC5)c([2H])cc4[nH]3)c(=O)[nH]c2s1` [Example 5, 4-amino-5-(5-(4-methylpiperazin-1-yl)-1H-benzo[d]imidazol-2-yl-4,6-d2)thieno[2,3-b]pyridin-6(7H)-one-2-d]: the half-inhibitory concentration (IC50) (usually the concentration at which inhibition is half-maximal) in series [1] came out at 8.8 nM; in series [2] it was 53 nM.

With `[2H]C1([2H])CN(C)CC([2H])([2H])N1c1ccc2[nH]c(-c3c(N)c4ccsc4[nH]c3=O)nc2c1` [Example 4, 4-amino-5-(5-(4-methylpiperazin-1-yl-2,2,6,6-d4)-1H-benzo[d]imidazol-2-yl)thieno[2,3-b]pyridin-6(7H)-one], the IC50 in series [1] amounted to 9.2 nM; in series [2], 83 nM. Also, the “MLM (0.5 mg/mL) Remaining percentage (T = 60 min)” value in series [3] (mouse, microsomes, 1 h, pH 7.4) amounted to 42.58%. In addition, the “HLM (0.5 mg/mL) Remaining percentage (T = 60 min)” value in series [4] (human, microsomes, 1 h, pH 7.4) is on record as 88.50%.

Turning to `[2H]C1([2H])N(C)C([2H])([2H])C([2H])([2H])N(c2ccc3[nH]c(-c4c(N)c5ccsc5[nH]c4=O)nc3c2)C1([2H])[2H]` [Example 2, 4-amino-5-(5-(4-methylpiperazin-1-yl-2,2,3,3,5,5,6,6-d8)-1H-benzo[d]imidazol-2-yl)thieno [2,3-b]pyridin-6(7H)-one], in series [1], the IC50 stood at 9.7 nM. Besides, the “MLM (0.5 mg/mL) Remaining percentage (T = 60 min)” value in series [3] (setting [5]) was found to be 45.97%. In addition, in series [4] (setting [6]), the “HLM (0.5 mg/mL) Remaining percentage (T = 60 min)” value stood at 89.66%.

As for `[2H]C1([2H])CN(c2ccc3[nH]c(-c4c(N)c5ccsc5[nH]c4=O)nc3c2)CC([2H])([2H])N1C` [Example 3, 4-amino-5-(5-(4-methylpiperazin-1-yl-3,3,5,5-d4)-1H-benzo[d]imidazol-2-yl)thieno[2,3-b]pyridin-6(7H)-one], in series [1], the IC50 was 7.5 nM. In series [3] (setting [5]), the “MLM (0.5 mg/mL) Remaining percentage (T = 60 min)” value is reported as 45.47%. For the same compound, in series [4] (setting [6]), the “HLM (0.5 mg/mL) Remaining percentage (T = 60 min)” value turned out to be 90.85%.

These data come from patent US20240002394A1, “DEUTERIUM-MODIFIED THIENOPYRIDONE COMPOUND” (Chia Tai Tianqing Pharmaceutical Group Co., Ltd., priority 2020, published 2024).
